Structures can show the parent of a compound that is named as a salt.

In general, melting point refers to the temperature of the solid-liquid transition. The molecule `CC(C)Cc1nn(C)c(=O)c2cc(C(O)c3cccnc3)sc12` (stereo not drawn) (as salt: hydrochloride) [Example 40, 2-[(1-Hydroxy-1-pyridin-3-yl)methyl]-5-methyl-7-(2-methylpropyl)thieno[2,3-d]pyridazin-4(5H)-one Hydrochloride] yielded a melting point of 154 to 156 °C. For `CC(C)Cc1nn(C)c(=O)c2cc(Cc3cnc4ccccc4c3)sc12` (as salt: hydrochloride) [Example 44, 5-Methyl-7-(2-methylpropyl)-2-(3-quinolinylmethyl)thieno[2,3-d]pyridazin-4(5H)-one Hydrochloride] the value was > 230 °C (dec.); for `CC(C)Cc1nn(C)c(=O)c2cn(Cc3cccc4ccccc34)cc12` [Example 1, 2,6-Dihydro-2-methyl-4-(2-methylpropyl)-6-(1-naphthalenylmethyl)-1H-pyrrolo[3,4-d]pyridazin-1-one], 110 to 112 °C. For `COCCn1nc(CC(C)C)c2cn(Cc3cccc4ccccc34)cc2c1=O` [Example 2, 2,6-Dihydro-2-(2-methoxyethyl)-4-(2-methylpropyl)-6-(1-naphthalenylmethyl)-1H-pyrrolo[3,4-d]pyridazin-1-one] the value was 96 to 98 °C. For `CC(C)Cc1nn(C)c(=O)c2c(SCCCC(=O)O)n(Cc3cccc4ccccc34)cc12` [Example 4, 4-{[2,6-Dihydro-2-methyl-4-(2-methylpropyl)-6-(1-naphthalenylmethyl)-1-oxo-1H-pyrrolo[3,4-d]pyridazin-7-yl]thio}butanoic Acid] the value was 167 °C; for `CC(C)Cc1nn(C)c(=O)c2c([S+]([O-])CCCO)n(Cc3cccc4ccccc34)cc12` (stereo not drawn) [Example 5 (A), 2,6-Dihydro-7-[(3-hydroxypropyl)sulfinyl]-2-methyl-4-(2-methylpropyl)-6-(1-naphthalenylmethyl)-1H-pyrrolo[3,4-d]pyridazin-1-one], 164 to 166 °C; for `CC(C)Cc1nn(C)c(=O)c2cc(C(O)c3cccc4ccccc34)sc12` (stereo not drawn) [Example 6, 2-[1-Hydroxy-1-(1-naphthalenyl)methyl]-5-methyl-7-(2-methylpropyl)thieno[2,3-d]pyridazin-4(5H)-one], 165 to 167 °C. For the molecule `CC(C)Cc1nn(C)c(=O)c2cc(C(=O)c3cccc4ccccc34)sc12` [Example 9, 5-Methyl-7-(2-methylpropyl)-2-(1-naphthalenylcarbonyl)thieno[2,3-d]pyridazin-4(5H)-one], the melting point is 121 °C. In turn, `CC(C)Cc1nn(C)c(=O)c2c([S+]([O-])CCCO)c(Cc3cccc4ccccc34)sc12` (stereo not drawn) [Example 10, 3[(3-Hydroxypropyl)sulfinyl]-5-methyl-7-(2-methylpropyl)-2-(1-naphthalenylmethyl)thieno[2,3-d]pyridazin-4(5H)-one] yielded a melting point of 60 to 65 °C. For `CC(C)Cc1nn(C)c(=O)c2c(SCCCC(=O)O)c(Cc3cccc4ccccc34)sc12` [Example 11, 4-{[4,5-Dihydro-5-methyl-7-(2-methylpropyl)-2-(1-naphthalenylmethyl)-4-oxothieno[2,3-d]pyridazin-3-yl]thio}butanoic Acid] the value was 154 to 156 °C; for `CC(C)Cc1nn(C)c(=O)c2c(S(=O)(=O)CCCO)c(Cc3cccc4ccccc34)sc12` [Example 13, 3-[(3-Hydroxypropyl)sulfonyl]-5-methyl-7-(2-methylpropyl)-2-(1-naphthalenylmethyl)thieno[2,3-d]pyridazin-4(5H)-one], 160 to 163 °C; for `CC(C)Cc1nn(C)c(=O)c2cc(Cc3ccccc3)sc12` [Example 15, 5-Methyl-7-(2-methylpropyl)-2-phenylmethylthieno[2,3-d]pyridazin-4(5H)-one], 97 to 98 °C. Molecule `CC(C)Cc1nn(C)c(=O)c2c(SCCCO)c(Cc3ccccc3)sc12` [Example 16, 3-[(3-Hydroxypropy)thio]-5-methyl-7-(2-methylpropyl)-2-phenylmethylthieno[2,3-d]pyridazin-4(5H)-one] yielded a melting point of 60 to 65 °C. For `CC(C)Cc1nn(C)c(=O)c2c(S(=O)(=O)CCCO)c(Cc3ccccc3)sc12` [Example 17, 3-[(3-Hydroxypropyl)sulfonyl]-5-methyl-7-(2-methylpropyl)-2-phenylmethylthieno[2,3-d]pyridazin-4(5H)-one] the value was 105 to 107 °C; for `CC(C)Cc1nn(C)c(=O)c2cn(Cc3ccccc3)cc12` [Example 18, 2,6-Dihydro-2-methyl-4-(2-methylpropyl)-6-phenylmethyl-1H-pyrrolo[3,4-d]pyridazin-1-one], 104 °C; for `CC(C)Cc1nn(C)c(=O)c2c(Sc3ccccn3)n(Cc3ccccc3)cc12` [Example 19, 2,6-Dihydro-2-methyl-4-(2-methylpropyl)-6-phenylmethyl-7-(2-pyridinylthio)-1H-pyrrolo[3,4-d]pyridazin-1-one], 131 to 132 °C. For `CC(C)Cc1nn(C)c(=O)c2c(SCCCO)n(Cc3ccccc3)cc12` [Example 20, 2,6-Dihydro-7-[(3-hydroxypropyl)thio]-2-methyl-4-(2-methylpropyl)-6-phenylmethyl-1H-pyrrolo[3,4-d]pyridazin-1-one] the value was 91 to 92 °C. Turning to `COc1cc(Cn2cc3c(CC(C)C)nn(C)c(=O)c3c2)cc(OC)c1OC` [Example 21, 2,6-Dihydro-2-methyl-4-(2-methylpropyl)-6-(3,4,5-trimethoxyphenyl)methyl-1H-pyrrolo[3,4-d]pyridazin-1-one], the melting point fell in the range of 154.5 to 155 °C. For `CC(C)Nc1nn(C)c(=O)c2cn(Cc3cccc4ccccc34)cc12` [Example 22, 2,6-Dihydro-2-methyl-6-(1-naphthalenylmethyl)-4-(1-methylethyl)amino-1H-pyrrolo[3,4-d]pyridazin-1-one] the value was 221 to 222 °C; for `CC(C)Cc1nn(C)c(=O)c2cn(Cc3ccncc3)cc12` [Example 23, 2,6-Dihydro-2-methyl-4-(2-methylpropyl)-6-(4-pyridinyl)methyl-1H-pyrrolo[3,4-d]pyridazin-1-one], 91 to 93 °C. `CC(C)Cc1nn(C)c(=O)c2cn(Cc3cccc4ccccc34)nc12` [Example 32, 2,5-Dihydro-5-methyl-7-(2-methylpropyl)-2-(1-naphthalenylmethyl)-4H-pyrazolo[3,4-d]pyridazin-4-one] displayed a melting point of 166 to 167 °C. For `CC(C)Cc1nn(C)c(=O)c2nn(Cc3cccc4ccccc34)cc12` [Example 33] the value was 163 to 164 °C; for `CC(C)Cc1nn(C)c(=O)c2c(SCCCO)n(Cc3cccc4ccccc34)nc12` [Example 34, 2,5-Dihydro-3-[(3-hydoxypropyl)thio]-5-methyl-7-(2-methylpropyl)-2-(1-naphthalenylmethyl)-4H-pyrazolo[3,4-d]pyridazin-4-one], 141 to 142 °C; for `CC(C)Cc1nn(C)c(=O)c2cc(C(O)c3cccc4ccccc34)oc12` (stereo not drawn) [Example 35, 2-[1-Hydroxy-1-(1-naphthalenyl)methyl]-5-methyl-7-(2-methylpropyl)furo[2,3-d]pyridazin-4(5H)one], 110 to 112 °C. For `CC(C)Cc1nn(C)c(=O)c2cc(Cc3cccc4ccccc34)oc12` [Example 36, 5-Methyl-7-(2-methylpropyl)-2-(1-naphthalenylmethyl)furo[2,3-d]pyridazin-4(5H)one] the value was 73 to 75 °C; for `CC(C)Cc1nn(C)c(=O)c2cc(C(O)c3cccc(C#N)c3)oc12` (stereo not drawn) [Example 37, 2-[1-Hydroxy-1-(3-cyanophenyl)methyl]-5-methyl-7-(2-methylpropyl)furo[2,3-d]pyridazin4(5H)one], 106 to 108 °C. `CC(C)Cc1nn(C)c(=O)c2cc(Cc3cccc(C#N)c3)oc12` [Example 38, 2-(3-Cyanophenyl)methyl-5-methyl-7-(2-methylpropyl)furo[2,3-d]pyridazin-4(5H)one] displayed a melting point of 76 to 78 °C. For `CC(C)Cc1nn(C)c(=O)c2cc(Cc3ccccc3C(F)(F)F)sc12` [Example 39, 2-(2-Trifluoromethylphenyl)methyl-5-methyl-7-(2-methylpropyl)thieno[2,3-d]pyridazin-4(5H)-one] the value was 112 to 114 °C; for `CC(C)Cc1nn(C)c(=O)c2cc(Cc3cccnc3)sc12` [Example 41, 5Methyl-7-(2-methylpropyl)-2-(3-pyridinylmethyl)thieno[2,3-d]pyridazin-4(5H)-one], 118 to 119 °C.

For `CC(C)Cc1nn(C)c(=O)c2cc(Cc3c(F)cccc3Cl)sc12` [Example 42, 2-(2-Chloro-6-fluorophenyl)methyl-5-methyl-7-(2-methylpropyl)thieno[2,3-d]pyridazin-4(5H)-one], the melting point was 85 to 86 °C.

Source of the values: patent US6342601B1, “Compounds” (AstraZeneca AB, priority 1997, dated 2002).
